Eleven molecules from US12319709B2, “Diaryl trehalose compounds and uses thereof” (THE UNIVERSITY OF MONTANA, priority 2018, dated 2025) can be followed below.

The test system of one test is RAW264.7 cells. The experiment in a line: Cytokine (TNFα) response of mouse macrophage cell line; Table 2 'Murine'. Format: cell-based. Details: Maximum cytokine response Murine: unit not given here. Conditions: NR = no response. As to the method:
Compounds were also tested in a mouse macrophage cell line (FIG. 4B). RAW264.7 cells were subjected to increasing concentrations of the compounds and assessed for production of the cytokine TNFα.

Test [1] relates to peripheral blood mononuclear cells (PBMCs). In words: IL-6 induction in fresh human PBMCs. Conditions: for Maximum cytokine response h-IL-6 / Minimal Effective Concentration h-IL-6: human IL-6, NR = no response. Format: cell-based. As to the method:
Tumor necrosis factor alpha (TNFα) and IL-6 production in peripheral blood mononuclear cells (PBMCs) was measured after exposure to various concentrations of the DAT compounds synthesized as shown above. Initial studies focused on two different methods of delivery of the DAT compounds to PBMC cultures. In the first delivery method, the indicated derivative compound was dissolved in isopropanol, serially diluted, and then dried to the bottom of a tissue culture plate. In the second delivery method, the indicated derivative compound was dissolved in DMSO and serially diluted into tissue culture media. In each method, PBMCs were added to the compounds and incubated at 37° C. TNFα (FIG. 1A) and IL-6 (FIG. 1B) were measured after 18-24 hours after treatment by ELISA assay.
The isolated PBMCs were exposed to increasing concentrations of the indicated compounds resuspended in DMSO and serially diluted in media. IL-6 levels were determined from supernatants eighteen hours after treatment (FIG. 3).

Turning to `COc1cc(OC)cc(C(=O)OC[C@H]2O[C@H](O[C@H]3O[C@H](COC(=O)c4cc(OC)cc(OC)c4)[C@@H](O)[C@H](O)[C@H]3O)[C@H](O)[C@@H](O)[C@@H]2O)c1` [UM1014], in the test on RAW264.7 cells (listed as 1014), the “Maximum cytokine response Murine” value is 3.3 and the “Minimal Effective Concentration Murine” value was 37 µM. In addition, the “IL-6 production / activity in fresh PBMCs from multiple donors (in words)” value in test [1] (compounds in DMSO serially diluted in media, supernatants 18 h after treatment, listed as 1014) was “inactive”.

In the case of `Cc1cc(C)cc(C(=O)OCC2OC(OC3OC(COC(=O)c4cc(C)cc(C)c4)C(O)C(O)C3O)C(O)C(O)C2O)c1` (stereo not drawn) [UM1016], in the test on RAW264.7 cells, the “Maximum cytokine response Murine” value is recorded as 3 and the “Minimal Effective Concentration Murine” value came to 4.1 µM. In test [1], the “Maximum cytokine response h-IL-6” value was 1.5 OD and the “Minimal Effective Concentration h-IL-6” value was 1000 µM.

On to `COc1cccc(/C=C/C(=O)OC[C@H]2O[C@H](O[C@H]3O[C@H](COC(=O)/C=C/c4cccc(OC)c4OC)[C@@H](O)[C@H](O)[C@H]3O)[C@H](O)[C@@H](O)[C@@H]2O)c1OC` [UM1018], for which, in the test on RAW264.7 cells, the “Maximum cytokine response Murine” value is listed as 3.5 and the “Minimal Effective Concentration Murine” value worked out at 37 µM. Further, in test [1], the “Maximum cytokine response h-IL-6” value stood at 1.3 OD and the “Minimal Effective Concentration h-IL-6” value worked out at 333 µM.

On to `CCCOc1cc(OCCC)cc(C(=O)OC[C@H]2O[C@H](O[C@H]3O[C@H](COC(=O)c4cc(OCCC)cc(OCCC)c4)[C@@H](O)[C@H](O)[C@H]3O)[C@H](O)[C@@H](O)[C@@H]2O)c1` [UM1050], for which, in test [1], the “Maximum cytokine response h-IL-6” value is 3.3 OD and the “Minimal Effective Concentration h-IL-6” value is 9 µM.

For the molecule `O=C(OC[C@H]1O[C@H](O[C@H]2O[C@H](COC(=O)c3cccc(C(F)(F)F)c3O)[C@@H](O)[C@H](O)[C@H]2O)[C@H](O)[C@@H](O)[C@@H]1O)c1cccc(C(F)(F)F)c1O` [UM1053], in test [1], the “Maximum cytokine response h-IL-6” value was 0.5 OD and the “Minimal Effective Concentration h-IL-6” value came to 100 µM.

Consider `O=C(OC[C@H]1O[C@H](O[C@H]2O[C@H](COC(=O)c3cc(C(F)(F)F)cc(C(F)(F)F)c3)[C@@H](O)[C@H](O)[C@H]2O)[C@H](O)[C@@H](O)[C@@H]1O)c1cc(C(F)(F)F)cc(C(F)(F)F)c1` [UM1054], for which, in test [1], the “Maximum cytokine response h-IL-6” value was 1.5 OD and the “Minimal Effective Concentration h-IL-6” value was determined as 100 µM.

Turning to `O=C(OC[C@H]1O[C@H](O[C@H]2O[C@H](COC(=O)c3cccc(-c4ccccc4O)c3)[C@@H](O)[C@H](O)[C@H]2O)[C@H](O)[C@@H](O)[C@@H]1O)c1cccc(-c2ccccc2O)c1` [UM1060], in test [1], the “Maximum cytokine response h-IL-6” value is on record as 3.3 OD and the “Minimal Effective Concentration h-IL-6” value was found to be 33.3 µM.

With `COc1cc(C(=O)OC[C@H]2O[C@H](O[C@H]3O[C@H](COC(=O)c4cc(OC)c(Br)c(OC)c4)[C@@H](O)[C@H](O)[C@H]3O)[C@H](O)[C@@H](O)[C@@H]2O)cc(OC)c1Br` [UM1077], in test [1], the “Maximum cytokine response h-IL-6” value was determined as 2.5 OD and the “Minimal Effective Concentration h-IL-6” value came to 100 µM.

For the molecule `CCOc1cc(C(C)(C)C)ccc1C(=O)OC[C@H]1O[C@H](O[C@H]2O[C@H](COC(=O)c3ccc(C(C)(C)C)cc3OCC)[C@@H](O)[C@H](O)[C@H]2O)[C@H](O)[C@@H](O)[C@@H]1O` [UM1132], in test [1], the “Maximum cytokine response h-IL-6” value is given as 2.6 OD and the “Minimal Effective Concentration h-IL-6” value stood at 100 µM.

In the case of `CCOc1cc(C(=O)OC[C@H]2O[C@H](O[C@H]3O[C@H](COC(=O)c4ccc(OCc5ccccc5)c(OCC)c4)[C@@H](O)[C@H](O)[C@H]3O)[C@H](O)[C@@H](O)[C@@H]2O)ccc1OCc1ccccc1` [UM1134], in test [1], the “Maximum cytokine response h-IL-6” value was determined as 0.5 OD and the “Minimal Effective Concentration h-IL-6” value came out at 100 µM.

For `Cc1ccc(C)c(C(C)(C)CC(=O)OC[C@H]2O[C@H](O[C@H]3O[C@H](COC(=O)CC(C)(C)c4cc(C)ccc4C)[C@@H](O)[C@H](O)[C@H]3O)[C@H](O)[C@@H](O)[C@@H]2O)c1` [UM1137], in test [1], the “Maximum cytokine response h-IL-6” value came out at 1 OD and the “Minimal Effective Concentration h-IL-6” value was 100 µM.
